Reference: ChEMBL document CHEMBL1201862, “PubChem BioAssay data set” (2004)
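1) Cells in 96-well plates. 2) Compound, 48 h, 5 concentrations. 3) Linear interpolation between surrounding doses. 4) Unreached endpoint = highest concentration. At the GI50, growth is halved.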 Calls of active or inactive are those of the source. No stated cut-off is given here; in the data, active = GI50 up to about 1.1 µM and inactive = higher.

Assays:
Test in all cases: NCI-60 cell line screen, 48 h
A498 = test system: A498
CAKI-1 = test system: CAKI-1
COLO 205 = test system: COLO 205
EKVX = test system: EKVX
HCT-116 = test system: HCT-116
HL-60 = test system: HL-60
HOP-62 = test system: HOP-62
HOP-92 = test system: HOP-92
HT-29 = test system: HT-29
IGROV-1 = test system: IGROV-1
K562 = test system: K562
LOX IMVI = test system: LOX IMVI
MCF7 = test system: MCF7
Malme-3M = test system: Malme-3M
NCI-H460 = test system: NCI-H460
OVCAR-3 = test system: OVCAR-3
OVCAR-4 = test system: OVCAR-4
SK-MEL-5 = test system: SK-MEL-5
SNB-19 = test system: SNB-19
UO-31 = test system: UO-31

Row | SMILES | GI50 (A498) | GI50 (CAKI-1) | GI50 (COLO 205) | GI50 (EKVX) | GI50 (HCT-116) | GI50 (HL-60) | GI50 (HOP-62) | GI50 (HOP-92) | GI50 (HT-29) | GI50 (IGROV-1) | GI50 (K562) | GI50 (LOX IMVI) | GI50 (MCF7) | GI50 (Malme-3M) | GI50 (NCI-H460) | GI50 (OVCAR-3) | GI50 (OVCAR-4) | GI50 (SK-MEL-5) | GI50 (SNB-19) | GI50 (UO-31)
1 | Cc1cccc(C)c1NC(=O)Nc1ccc(S(N)(=O)=O)cc1 | > 100 µM (inactive) | > 100 µM (inactive) | > 100 µM (inactive) | > 100 µM (inactive) | > 100 µM (inactive) | > 100 µM (inactive) | > 100 µM (inactive) | > 100 µM (inactive) | > 100 µM (inactive) | > 100 µM (inactive) | > 100 µM (inactive) | > 100 µM (inactive) | > 100 µM (inactive) | > 100 µM (inactive) | > 100 µM (inactive) | > 100 µM (inactive) | > 100 µM (inactive) | > 100 µM (inactive) | > 100 µM (inactive) | > 100 µM (inactive)
2 | CCOC(=O)/C=C/c1c[nH]c(C(=O)OCC)c1 | > 100 µM (inactive) | > 100 µM (inactive) | > 100 µM (inactive) | > 85.7 µM (inactive) | > 100 µM (inactive) | > 100 µM (inactive) | > 100 µM (inactive) | > 100 µM (inactive) | > 100 µM (inactive) | > 100 µM (inactive) | 51.5 µM (inactive) | > 100 µM (inactive) | > 100 µM (inactive) | > 100 µM (inactive) | > 100 µM (inactive) | > 100 µM (inactive) | > 100 µM (inactive) | > 100 µM (inactive) | > 100 µM (inactive) | > 100 µM (inactive)
3 | COC(=O)C1C(O)C(C)C(O)C(C)(O)/C=C\C=C(C)C(=O)Nc2c(C)c(OC(C)=O)c3c(c2O)C(=O)C(C)=C2OCOC(=C23)C(C)=CC(C)(O)C(O)C(C)C1OC(C)=O (stereo not given) | 49.8 µM (inactive) | 47.5 µM (inactive) | 18.6 µM (inactive) | 34.1 µM (inactive) | 21.4 µM (inactive) | 28.4 µM (inactive) | > 86.3 µM (inactive) | 2.52 µM (inactive) | 45.4 µM (inactive) | 30.1 µM (inactive) | 37.4 µM (inactive) | 20.4 µM (inactive) | 18 µM (inactive) | 28.9 µM (inactive) | 26.1 µM (inactive) | 27.7 µM (inactive) | 75 µM (inactive) | 30.3 µM (inactive) | 89.9 µM (inactive) | > 100 µM (inactive)
4 | O=C1C=C/C(=C/[C@H]2SSC=C[C@]23C=CC(=O)C3)C1 | 17.6 µM (inactive) | 9.91 µM (inactive) | 13 µM (inactive) | 17.5 µM (inactive) | 7.36 µM (inactive) | 2.38 µM (inactive) | 27.9 µM (inactive) | 20.6 µM (inactive) | 11 µM (inactive) | 17.8 µM (inactive) | 5.3 µM (inactive) | 10.3 µM (inactive) | 5.79 µM (inactive) | 16.9 µM (inactive) | 29.3 µM (inactive) | 26.7 µM (inactive) | 30 µM (inactive) | 16.9 µM (inactive) | 36.1 µM (inactive) | 14.8 µM (inactive)
5 | CC(=O)OCC1OC(Nc2ncc(-c3ccc(C)cc3)s2)C(OC(C)=O)C(OC(C)=O)C1OC(C)=O (stereo not given) | 48.2 µM (inactive) | 29 µM (inactive) | 40.5 µM (inactive) | 54 µM (inactive) | 26.6 µM (inactive) | 21 µM (inactive) | 52 µM (inactive) | 42.6 µM (inactive) | 29.2 µM (inactive) | 66.5 µM (inactive) | 34.2 µM (inactive) | 26.9 µM (inactive) | 13.3 µM (inactive) | 61.5 µM (inactive) | 31.5 µM (inactive) | 31.6 µM (inactive) | 27 µM (inactive) | 33.3 µM (inactive) | > 100 µM (inactive) | 19.8 µM (inactive)
6 | CN(C)CCOc1cc2c(c3ccccc13)-c1ccccc1C2=O | 6.68 µM (inactive) | 0.388 µM (active) | 1.92 µM (inactive) | 4.91 µM (inactive) | 1.03 µM (active) | 1.24 µM (inactive) | 1.19 µM (inactive) | 0.933 µM (active) | 1.19 µM (inactive) | 1.88 µM (inactive) | 1.74 µM (inactive) | 1.05 µM (active) | 1.1 µM (active) | 2.19 µM (inactive) | 0.675 µM (active) | 1.9 µM (inactive) | 1.12 µM (active) | 1.58 µM (inactive) | 2.7 µM (inactive) | 1.5 µM (inactive)
7 | O=C(O)C(F)(F)C(F)(F)C(F)(F)C(F)(F)C(F)(F)C(F)(F)C(F)(F)C(F)(F)F | 38.3 µM (inactive) | > 100 µM (inactive) | 48.5 µM (inactive) | 48 µM (inactive) | 41 µM (inactive) | 25.2 µM (inactive) | 52.6 µM (inactive) | 24.9 µM (inactive) | 48.2 µM (inactive) | > 100 µM (inactive) | 27.1 µM (inactive) | 42.3 µM (inactive) | 57 µM (inactive) | > 100 µM (inactive) | 81.5 µM (inactive) | 43.8 µM (inactive) | 73.3 µM (inactive) | 80 µM (inactive) | 39.6 µM (inactive) | 47.5 µM (inactive)
8 | C[S+](C)CC1OC(n2cnc3c(N)ncnc32)C(O)C1O (stereo not given) | > 225 µM (inactive) | > 225 µM (inactive) | > 225 µM (inactive) | > 225 µM (inactive) | > 225 µM (inactive) | > 225 µM (inactive) | > 225 µM (inactive) | > 225 µM (inactive) | > 225 µM (inactive) | > 225 µM (inactive) | > 225 µM (inactive) | > 225 µM (inactive) | > 225 µM (inactive) | > 225 µM (inactive) | > 225 µM (inactive) | > 225 µM (inactive) | > 225 µM (inactive) | > 225 µM (inactive) | > 225 µM (inactive) | > 225 µM (inactive)
